# According to US4339427A, “Radioimmunoassay of thymosinα” (Hoffmann-la Roche Inc., priority 1980, dated 1982):
# Where no end group is shown, it is not given here.
# Tested on: rabbit anti-thymosin α1 antiserum
# Assay: radioimmunoassay for thymosin α1 (inhibition of tracer binding / cross-reactivity, double antibody method)
# Settings: not given
# Experimental: a. Preparation of antisera
# Synthetic thymosin α1 was coupled to Keyhole Limpet Hemocyanin (KLH) by means of glutaraldehyde using the following procedure. Equivalent amounts (dry weight) of each protein, thymosin α1 and hemocyanin, were dissolved in 0.25 M NaPO4, pH 7.0 buffer at a concentration of 2 mg/ml. […] The reaction was allowed to continue for 3 hours while being stirred at room temperature. The reaction mixture was diluted in sterile saline to a final concentration of thymosin α1 of 100 μg/ml. The solution of coupled thymosin α1 was aliquoted and stored at -20° C.
# The mixture of products resulting from the cross-linking reactions carried out at room temperature was not fractionated or purified in any way. The thymosin α1 KLH conjugate was diluted with sterile normal saline and stored frozen for immunizations. Rabbits were immunized by administering 100 μg thymosin α1 (as the KLH conjugate) in emulsion with Ereund's Complete Adjuvant at 15-20 intradermal sites on the back of each rabbit according to the method of Vaitukaitis et al., J. Clin. Endoch. […] Weekly boosts of 50 μg thymosin α1 per animal in Freund's Incomplete Adjuvant were also administered at multiple intradermal sites.
# b. Radioiodination of [Tyr^1 ]-thymosin α1
# After a reaction time of 30 seconds at room temperature, the enzyme was inhibited by the addition of […]. […] The tracer was diluted 1:2,000 in immunoassay buffer to provide 4,000-5,000 cpm per assay tube, which is equivalent to less than 1 pg peptide mass per assay tube.
# Separation of free from bound tracer is carried out by the addition of goat anti-rabbit gamma globulin serum, incubation for 1 hour at 37° C. and finally incubation at 4° C. for 16 hours. The immunoprecipitate is pelleted by centrifugation at 2500 rpm for 20 minutes, the supernatant is aspirated and discarded, and the radioactivity in the immunoprecipitate is counted in an automatic gamma spectrometer. The counts per minute for standards and unknowns are corrected for non-specific background and compared to the total counts per minute for the reaction tubes where no competing antigen was introduced.
row,Molecule,cross-reactivity / competition in the RIA (in words)
1,TP.5: TP.5 (Ortho Pharmaceuticals) [reference compound],no cross-reactivity
2,"thymopoietin II fragment 29-41: thymopoietin II fragment 29-41 (Bachem, Inc.) (AGEQRKDVYVQLY; UniProt P42167 29-41, looked up, fragment) [reference compound]",no cross-reactivity
3,"alpha-fetoprotein: oncodevelopmental antigen alpha-fetoprotein (Hoffmann-La Roche Inc.) (protein, UniProt P02771 19-609, looked up) Alpha-fetoprotein: RTLHRNEYGIASILDSYQCTAEISLADLATIFFAQFVQEATYKEVSKMVKDALTAIEKPTGDEQSSGCLENQLPAFLEELCHEKEILEKYGHSDCCSQSEEGRHNCFLAHKKPTPASIPLFQVPEPVTSCEAYEEDRETFMNKFIYEIARRHPFLYAPTILLWAARYDKIIPSCCKAENAVECFQTKAATVTKELRESSLLNQHACAVMKNFGTRTFQAITVTKLSQKFTKVNFTEIQKLVLDVAHVHEHCCRGDVLDCLQDGEKIMSYICSQQDTLSNKITECCKLTTLERGQCIIHAENDEKPEGLSPNLNRFLGDRDFNQFSSGEKNIFLASFVHEYSRRHPQLAVSVILRVAKGYQELLEKCFQTENPLECQDKGEEELQKYIQESQALAKRSCGLFQKLGEYYLQNAFLVAYTKKAPQLTSSELMAITRKMAATAATCCQLSEDKLLACGEGAADIIIGHLCIRHEMTPVNPGVGQCCTSSYANRRPCFSSLVVDETYVPPAFSDDKFIFHKDLCQAQGVALQTMKQEFLINLVKQKPQITEEQLEAVIADFSGLLEKCCQGQEQEVCFAEEGQKLISKTRAALGV",do not cross-react
4,"CEA: oncodevelopmental antigen, carcinoembryonic antigen (Hoffmann-La Roche Inc.) (protein, UniProt P06731 35-685, looked up) Cell adhesion molecule CEACAM5: KLTIESTPFNVAEGKEVLLLVHNLPQHLFGYSWYKGERVDGNRQIIGYVIGTQQATPGPAYSGREIIYPNASLLIQNIIQNDTGFYTLHVIKSDLVNEEATGQFRVYPELPKPSISSNNSKPVEDKDAVAFTCEPETQDATYLWWVNNQSLPVSPRLQLSNGNRTLTLFNVTRNDTASYKCETQNPVSARRSDSVILNVLYGPDAPTISPLNTSYRSGENLNLSCHAASNPPAQYSWFVNGTFQQSTQELFIPNITVNNSGSYTCQAHNSDTGLNRTTVTTITVYAEPPKPFITSNNSNPVEDEDAVALTCEPEIQNTTYLWWVNNQSLPVSPRLQLSNDNRTLTLLSVTRNDVGPYECGIQNELSVDHSDPVILNVLYGPDDPTISPSYTYYRPGVNLSLSCHAASNPPAQYSWLIDGNIQQHTQELFISNITEKNSGLYTCQANNSASGHSRTTVKTITVSAELPKPSISSNNSKPVEDKDAVAFTCEPEAQNTTYLWWVNGQSLPVSPRLQLSNGNRTLTLFNVTRNDARAYVCGIQNSVSANRSDPVTLDVLYGPDTPIISPPDSSYLSGANLNLSCHSASNPSPQYSWRINGIPQQHTQVLFIAKITPNNNGTYACFVSNLATGRNNSIVKSITVSASGTSPGLSA",do not cross-react

# Same assay, conditions: RIA standard curve
Molecule,ED50 (50% inhibition) of standard curve,operating range for the assay,slope at inflection point (50% inhibition)
"thymosin α1: heat stable, acidic polypeptide composed of 28 amino acid residues (SDAAVDTSSEITTKDLKEKKEVVEEAEN; ends and bridges not checked; UniProt P06454 2-29, looked up)",130 to 160 pg,15 to 800 pg,-1.0

# Same assay, conditions: RIA standard curve; typically
row,Molecule,minimal detectable dose (10% inhibition)
1,"thymosin α1: heat stable, acidic polypeptide composed of 28 amino acid residues (SDAAVDTSSEITTKDLKEKKEVVEEAEN; ends and bridges not checked; UniProt P06454 2-29, looked up)",8 to 15 pg

# Same assay, conditions: Table 1; 125I-[Tyr1]-thymosin α1 tracer
row,Molecule,ED50 - Amount of protein (ng) required to produce a 50% inhibition in RIA
1,Cytochrome C (equine): Cytochrome C (equine),"> 200,000 ng"
2,Erythopoietin (human): Erythopoietin (human),"> 160,000 ng"
3,Fetuin (bovine): Fetuin (bovine),"> 250,000 ng"
4,Glucagon (porcine): Glucagon (porcine),"> 500,000 ng"
5,Hemoglobin (human): Hemoglobin (human),"> 200,000 ng"
6,Insulin (porcine): Insulin (porcine),"> 200,000 ng"
7,"Natural thymosin α1: heat stable, acidic polypeptide composed of 28 amino acid residues, isolated from calf thymus thymosin fraction 5 (SDAAVDTSSEITTKDLKEKKEVVEEAEN; ends and bridges not checked; UniProt P01252 2-29, looked up)",0.45 ng
8,"RPPGFSPFR [Bradykinin, reference compound]","> 50,000 ng"
9,Serum albumin (bovine): Serum albumin (bovine),"> 250,000 ng"
10,"Synthetic thymosin α1: thymosin α1 obtained by peptide synthesis procedures (SDAAVDTSSEITTKDLKEKKEVVEEAEN; ends and bridges not checked; UniProt P06454 2-29, looked up) [reference compound]",0.40 ng
11,TP.5: TP.5 (Ortho Pharmaceuticals) [reference compound],"> 15,000 ng"
12,Transferrin (human): Transferrin (human),"> 50,000 ng"
13,"CEA: oncodevelopmental antigen, carcinoembryonic antigen (Hoffmann-La Roche Inc.) (protein, UniProt P06731 35-685, looked up) Cell adhesion molecule CEACAM5: KLTIESTPFNVAEGKEVLLLVHNLPQHLFGYSWYKGERVDGNRQIIGYVIGTQQATPGPAYSGREIIYPNASLLIQNIIQNDTGFYTLHVIKSDLVNEEATGQFRVYPELPKPSISSNNSKPVEDKDAVAFTCEPETQDATYLWWVNNQSLPVSPRLQLSNGNRTLTLFNVTRNDTASYKCETQNPVSARRSDSVILNVLYGPDAPTISPLNTSYRSGENLNLSCHAASNPPAQYSWFVNGTFQQSTQELFIPNITVNNSGSYTCQAHNSDTGLNRTTVTTITVYAEPPKPFITSNNSNPVEDEDAVALTCEPEIQNTTYLWWVNNQSLPVSPRLQLSNDNRTLTLLSVTRNDVGPYECGIQNELSVDHSDPVILNVLYGPDDPTISPSYTYYRPGVNLSLSCHAASNPPAQYSWLIDGNIQQHTQELFISNITEKNSGLYTCQANNSASGHSRTTVKTITVSAELPKPSISSNNSKPVEDKDAVAFTCEPEAQNTTYLWWVNGQSLPVSPRLQLSNGNRTLTLFNVTRNDARAYVCGIQNSVSANRSDPVTLDVLYGPDTPIISPPDSSYLSGANLNLSCHSASNPSPQYSWRINGIPQQHTQVLFIAKITPNNNGTYACFVSNLATGRNNSIVKSITVSASGTSPGLSA","> 25,000 ng"
14,"Myoglobin (equine): Myoglobin (equine) (protein, UniProt P68082 2-154, looked up) Myoglobin: GLSDGEWQQVLNVWGKVEADIAGHGQEVLIRLFTGHPETLEKFDKFKHLKTEAEMKASEDLKKHGTVVLTALGGILKKKGHHEAELKPLAQSHATKHKIPIKYLEFISDAIIHVLHSKHPGDFGADAQGAMTKALELFRNDIAAKYKELGFQG","50,000 ng"
